Legend:
[1] = target: T1, GRPR (PC-3 cells) (Homo sapiens, UniProt P30550); experiment: Fluorometric intracellular calcium release assay; type: cell-based; conditions: 50 nM, n = 3
T1 construct: GRPR-expressing prostate cancer PC-3 cells; host or cells: PC-3 prostate adenocarcinoma cells
Protocol: The antagonist/agonist characteristics of Lu-TacsBOMB5, Lu-LW01110, and Lu-LW01142 were determined following previously published procedure. A 96-well clear bottom black plate was seeded with 5 × 10^4 PC-3 prostate cancer cells/100 μL/well 24 h prior to the assay. The calcium-sensitive dye (FLIPR Calcium 6 assay kit from Molecular Devices, San Jose, CA, USA) in loading buffer (100 μL/well) was added into the 96-well plate, followed by 1 h incubation at 37 °C. After that, the plate was transferred into a FlexStation 3 microplate reader (Molecular Devices, San Jose, CA, USA). Lu-complexed nonradioactive standard (50 nM), [D-Phe^6,Leu-NHEt^13,des-Met^14]Bombesin(6–14) (50 nM, antagonist control), bombesin (50 nM, agonist control), adenosine triphosphate (ATP, 50 nM, positive control), or DPBS (blank control) was added, and the fluorescent signals were acquired for 2 min (λEx = 485 nm; λEm = 525 nm; n = 3). The relative fluorescent unit (RFU = max − min) was calculated to determine the agonistic/antagonistic characteristics for the tested ligands.

[2] = tested on: PC-3 tumor xenografts; conditions: in vivo, 1 h; cited from earlier work

T1 sequence (P30550 whole entry): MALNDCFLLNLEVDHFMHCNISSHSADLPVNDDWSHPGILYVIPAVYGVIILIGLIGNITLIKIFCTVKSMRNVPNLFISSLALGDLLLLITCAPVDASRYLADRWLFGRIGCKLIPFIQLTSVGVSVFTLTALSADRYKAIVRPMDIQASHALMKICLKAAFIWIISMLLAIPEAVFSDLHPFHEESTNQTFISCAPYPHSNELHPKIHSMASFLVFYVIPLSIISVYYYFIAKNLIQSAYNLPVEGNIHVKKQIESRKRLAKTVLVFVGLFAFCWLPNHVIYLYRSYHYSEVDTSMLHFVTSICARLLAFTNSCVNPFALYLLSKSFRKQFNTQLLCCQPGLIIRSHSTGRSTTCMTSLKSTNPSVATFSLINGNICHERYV

Compound	Ca2+ efflux (RFU = max − min) [1]	uptake in PC-3 tumor xenografts [2]
Nc1ncnc2c1ncn2[C@@H]1O[C@H](COP(=O)(O)OP(=O)(O)OP(=O)(O)O)[C@@H](O)[C@H]1O [ATP, adenosine triphosphate]	150 ± 40.7 RFUs	–
[D-Phe^6,Leu-NHEt^13,des-Met^14]Bombesin(6–14)	29.7 ± 2.73 RFUs	–
^68Ga-DOTA-Pip-[D-Phe^6,NMe-Gly^11,Leu^13ψThz^14]Bombesin(6–14) [[^68Ga]Ga-TacsBOMB5]	–	15.7 ± 2.17 %ID/g
^68Ga-DOTA-Pip-[D-Phe^6,Tle^10,NMe-His^12,Thz^14]Bombesin(6–14) [[^68Ga]Ga-LW01110]	–	16.6 ± 1.60 %ID/g
bombesin	235 ± 15.2 RFUs	–
